pIC50: −log10 of the molar value.
Columns and labels:
[1] = molecular target: T1, recombinant renin in human plasma (Homo sapiens, UniProt P00797); assay: Inhibition of renin in human plasma (QFRET, plasma); assay type: biochemical; conditions: human EDTA plasma with 1 nM recombinant renin added; 37° C., 1 hour
T1 construct: purchased Proteos
T1 sequence (P00797 67-406): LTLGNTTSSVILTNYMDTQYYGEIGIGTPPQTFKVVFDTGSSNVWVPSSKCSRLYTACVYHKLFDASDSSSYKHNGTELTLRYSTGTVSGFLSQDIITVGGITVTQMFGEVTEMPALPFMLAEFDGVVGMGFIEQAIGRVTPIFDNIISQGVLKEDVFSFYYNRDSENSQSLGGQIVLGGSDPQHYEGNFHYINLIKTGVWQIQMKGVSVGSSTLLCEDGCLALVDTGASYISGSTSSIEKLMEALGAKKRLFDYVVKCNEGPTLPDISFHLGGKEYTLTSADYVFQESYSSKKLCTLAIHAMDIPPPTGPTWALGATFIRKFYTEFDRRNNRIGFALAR
Description: Inhibition of Renin in Human Plasma
Human EDTA-collected plasma is rapidly thawed in warm water and centrifuged at 2900 g for 15 minutes at 4° C. The supernatant is collected and recombinant renin (Proteos) is added at a final concentration of 1 nM. The plasma is transferred to a Costar black 384 well plate (#3573). Renin inhibitors are added from a 17.5 fold concentrated DMSO solution and pre-incubated at 37° C. for 10 minutes. The internally-quench fluorescent peptide QXL520™-[…](5-FAM) (Anaspec), SEQ ID NO: 2, is diluted in 3M Tris pH 7.2, 200 mM EDTA and added to the plasma. The final concentrations are: 6 μM substrate, 342 mM Tris, 23 mM EDTA. The plate is incubated at 37° C. for 1 hour. The plate is read in a SpectraMax Gemini EM reader set at an excitation wavelength of 490 nm and an emission wavelength of 520 nm at times 0 and 1 hour. Background fluorescence at t=0 is subtracted from the measurement at t=1 hour. Inhibitory activity of the compounds is expressed as IC50.

[2] = molecular target: T2, Human recombinant renin (Homo sapiens, UniProt P00797); assay: Inhibition of human recombinant renin (QFRET, buffer); assay type: biochemical; conditions: buffer: 50 mM MOPS pH 7.4, 100 mM NaCl, 0.002% Tween 20; 37° C., 3 hours
T2 construct: purchased Proteos
T2 sequence (P00797 67-406): T1 sequence (P00797 67-406)
Description: Inhibition of Human Recombinant Renin
Human recombinant renin (Proteos) in 50 mM MOPS pH 7.4, 100 mM NaCl, 0.002% Tween 20 at a final concentration of […] is incubated with inhibitors from a 50 fold concentrated DMSO solution and 6 μM of an internally-quenched fluorescent peptide: DNP-[…]D,L-Amp (SEQ ID NO: 1); Paschalidou K. et al., Biochem J., 2004, 382, 1031). The reactions take place in a Costar 384 well black plate (#3573) at 37° C. for 3 hours. Fluorescence is measured at times 0 and 3 hours with a SpectraMax Gemini EM reader set at an excitation wavelength of 328 nm and at an emission wavelength of 388 nm. Background fluorescence at t=0 is subtracted from the measurement at t=3 hours. Inhibitory activity of the compounds is expressed as IC50.

## CC(=O)NCCc1ccccc1-c1nnc([C@H]2CN[C@@H](C)C[C@@H]2c2ccc(F)c(F)c2)n1C1CC1 [Structure 94]
[1]
  pIC50: 8.52
[2]
  pIC50: 8.82

## Fc1ccc([C@H]2CCNC[C@@H]2c2nnc(-c3cccc(Cl)c3Cl)n2C2CC2)cc1F [Structure 95]
[1]
  pIC50: 9.19
[2]
  pIC50: 9.82

## CC(=O)NCCc1ccccc1-c1onc([C@H]2CN[C@@H](C)C[C@@H]2c2ccc(F)c(F)c2)c1Br [Structure 96]
[1]
  pIC50: 8.55
[2]
  pIC50: 9.15

## CC(=O)NCCc1cccnc1-c1onc([C@H]2CNCC[C@]2(O)c2ccc(F)c(F)c2)c1Br [Structure 97]
[1]
  pIC50: 7.05
[2]
  pIC50: 8.00

## COCCC[C@H](CNC(C)=O)c1ccccc1-c1onc([C@H]2CNCC[C@]2(O)c2ccc(F)c(F)c2)c1Br [Structure 98]
[1]
  pIC50: 8.66
[2]
  pIC50: 9.24

## COCCC[C@@H](CNC(C)=O)c1ccccc1-c1onc([C@H]2CNCC[C@]2(O)c2ccc(F)c(F)c2)c1Br [Structure 100]
[1]
  pIC50: 8.41
[2]
  pIC50: 8.92

## COCCCc1ccc(-c2onc([C@H]3CNCC[C@]3(O)c3ccc(F)c(F)c3)c2Br)c(CCNC(C)=O)c1 [Structure 102]
[1]
  pIC50: 8.96
[2]
  pIC50: 9.57

## CC(=O)NCCc1ccccc1-c1onc([C@H]2CNCC[C@]2(O)c2ccc(F)c(F)c2)c1Cl [Structure 104]
[1]
  pIC50: 8.72
[2]
  pIC50: 9.15

## CC(=O)NCCc1ccccc1-c1onc([C@H]2CNCC[C@]2(O)c2ccc(C)c(F)c2)c1Br [Structure 105]
[1]
  pIC50: 7.54
[2]
  pIC50: 8.31

## CC(=O)NCCc1ccccc1-c1onc([C@H]2CNCC[C@@H]2c2ccc(F)c(F)c2)c1Br [Structure 107]
[1]
  pIC50: 8.92
[2]
  pIC50: 9.59

## COCCCC(CNC(C)=O)c1ccccc1-c1onc([C@H]2CNCC[C@@H]2c2ccc(OCCOc3c(Cl)cc(C)cc3Cl)cc2)c1Br (stereo partly drawn) [Structure 108]
[1]
  pIC50: 8.70
[2]
  pIC50: 10.15

## CC(=O)NCCc1ccccc1-c1onc([C@H]2CNCC[C@@H]2c2ccc(OCCOc3c(Cl)cc(C)cc3Cl)cc2)c1C(C)O (stereo partly drawn) [Structure 109]
[1]
  pIC50: 8.92
[2]
  pIC50: 10.15

## CC(=O)NCCc1ccccc1-c1onc([C@H]2CNCC[C@@H]2c2ccc(OCCOc3c(Cl)cc(C)cc3Cl)cc2)c1C(C)=O [Structure 110]
[1]
  pIC50: 8.92
[2]
  pIC50: 10.05

## CC(=O)NCCc1ccccc1-c1onc([C@H]2CNCC[C@@H]2c2ccc(OCCOc3c(Cl)cc(C)cc3Cl)cc2)c1Br [Structure 111]
[1]
  pIC50: 8.92
[2]
  pIC50: > 10.30

## CC(=O)NCCc1ccccc1-c1onc([C@H]2CNCC[C@]2(O)c2ccc(COCC(F)(F)COC(C)C)cc2)c1Br [Structure 112]
[1]
  pIC50: 8.77
[2]
  pIC50: 9.36

## CCOCC(F)(F)COCc1ccc([C@@]2(O)CCNC[C@@H]2c2noc(-c3ccccc3CCNC(C)=O)c2Br)cc1 [Structure 114]
[1]
  pIC50: 9.24
[2]
  pIC50: 9.72

## CC(=O)NCCc1ccccc1-c1onc([C@H]2CNCC[C@]2(O)c2ccc(COCCOC(C)C)cc2)c1Br [Structure 115]
[1]
  pIC50: 7.80
[2]
  pIC50: 8.19

## CC(=O)NCCc1ccccc1-c1onc([C@H]2CNCC[C@]2(OCC(O)CO)c2ccc(F)c(F)c2)c1Br (stereo partly drawn) [Structure 117]
[1]
  pIC50: 8.85
[2]
  pIC50: 9.43

## CC(=O)NCCc1ccccc1-c1onc([C@H]2CNCC[C@]2(OC(N)=O)c2ccc(F)c(F)c2)c1Br [Structure 118]
[1]
  pIC50: 9.26
[2]
  pIC50: 9.66

## COC[C@H](C)COCc1ccc([C@@]2(O)CCNC[C@@H]2c2cnc(-c3ccccc3CCNC(C)=O)cc2C)cc1 [Structure 119]
[1]
  pIC50: 8.44
[2]
  pIC50: 9.82

## COCC(F)(F)COCc1ccc([C@@]2(O)CCNC[C@@H]2c2ccc(-c3ccccc3CCNC(C)=O)cc2C)cn1 [Structure 120]
[1]
  pIC50: 8.92
[2]
  pIC50: 9.18

## COCC(F)(F)COCc1ccc([C@@]2(O)CCNC[C@@H]2c2ccc(-c3ccccc3CCNC(C)=O)cc2C)cc1 [Structure 121]
[1]
  pIC50: 9.49
[2]
  pIC50: 10.10

## CCOCC(F)(F)COCc1ccc([C@@]2(O)CCNC[C@@H]2c2ccc(-c3ccccc3CCNC(C)=O)cc2C)cc1 [Structure 122]
[1]
  pIC50: 9.37
[2]
  pIC50: 10.05

## COCC(F)(F)COCc1ccc([C@@]2(O)CCNC[C@@H]2c2ccc(-c3ccccc3CCNC(C)=O)cc2C)nc1 [Structure 123]
[1]
  pIC50: 8.25
[2]
  pIC50: 8.92

## COC[C@H](C)COCc1ccc([C@@]2(O)CCNC[C@@H]2c2ccc(-c3ccccc3CCNC(N)=O)cc2C)cc1 [Structure 124]
[1]
  pIC50: 8.44
[2]
  pIC50: 9.20

## COC[C@H](C)COCc1ccc([C@@]2(O)CCNC[C@@H]2c2ccc(-c3ccccc3CCN3CCOC3=O)cc2C)cc1 [Structure 125]
[1]
  pIC50: 7.12
[2]
  pIC50: 8.34

## COC[C@H](C)COCc1ccc([C@@]2(O)CCNC[C@@H]2c2ccc(-c3ccccc3CCNC(C)=O)cc2Cl)cc1 [Structure 126]
[1]
  pIC50: 9.28
[2]
  pIC50: 10.10

## COC[C@H](C)COCc1ccc([C@@]2(O)CCNC[C@@H]2c2ccc(-c3ccccc3CCNC(=O)OC)cc2C)cc1 [Structure 127]
[1]
  pIC50: 8.89
[2]
  pIC50: 10.52

## COC[C@H](C)COCc1ccc([C@@]2(O)CCNC[C@@H]2c2ccc(-c3ccccc3CCNC(=O)CO)cc2C)cc1 [Structure 128]
[1]
  pIC50: 9.24
[2]
  pIC50: 10.15

## COC[C@H](C)COCc1ccc([C@@]2(O)CCNC[C@@H]2c2ccc(-c3ccccc3CCNC(C)=O)cc2C)cc1 [Structure 129]
[1]
  pIC50: 9.36
[2]
  pIC50: 10.30

## COC[C@H](C)COCc1ccc([C@@]2(O)CCNC[C@@H]2c2ccc(-c3ccccc3CCNC(C)=O)cc2C)nc1 [Structure 130]
[1]
  pIC50: 8.42
[2]
  pIC50: 10.12

## COC[C@H](C)COc1ccc([C@@]2(O)CCNC[C@@H]2c2ccc(-c3ccccc3CCNC(C)=O)cc2C)cc1 [Structure 131]
[1]
  pIC50: 7.74
[2]
  pIC50: 8.92

## CC(=O)NCCc1ccccc1-c1ccc([C@H]2CNCC[C@]2(O)c2ccc(OC(F)(F)F)c(F)c2)c(C)c1 [Structure 132]
[1]
  pIC50: 7.74
[2]
  pIC50: 9.40
